Legend:
[1] = tested on: Mycobacterium tuberculosis; assay: Inhibition of Mycobacterium tuberculosis recombinant InhA assessed as enzyme activity measured as NADH oxidation using 2-trans-decenyl CoA as substrate at 50 uM by TECAN spectrophotometer analysis; design: scale not given: the % may be the effect or the level left
[2] = tested on: Mycolicibacterium smegmatis; assay: Anti-mycobacterial activity against Mycobacterium smegmatis assessed as bacterial growth inhibition after 24 hrs by microplate reader analysis; type: functional, organism-based
Escherichia coli [3] = assay: Toxicity against Escherichia coli BL21 assessed as bacterial growth inhibition at 50 uM after 8 hrs by microplate reader analysis
Escherichia coli [4] = assay: Toxicity against Escherichia coli JM109 assessed as bacterial growth inhibition at 50 uM after 8 hrs by microplate reader analysis; type: organism-based; settings: in vivo
MDCK = assay: Cytotoxicity against dog MDCK cells at 50 uM after 1 day by WST-8 assay; type: cell-based, Canis lupus familiaris; settings: 24 h
SH-SY5Y = assay: Cytotoxicity against human SH-SY5Y cells at 50 uM after 2 days by WST-8 assay; type: cell-based; settings: 48 h

Structure (SMILES) | Activity [1] [%] | IC50 [2] [µM] | Activity (Escherichia coli [3]) | Activity (Escherichia coli [4]) | Activity (MDCK) | Activity (SH-SY5Y)
COc1ccccc1C(=O)N1CCN(Cc2cccc(Oc3ccccc3)c2)CC1.O=C(O)C(=O)O | 37.7 | 25.7 | Non-toxic | Non-toxic | Non-toxic | 
Sc1nnc(-c2ccco2)n1/N=C/c1cccc(Oc2ccccc2)c1 | 53.5 |  | Non-toxic | Non-toxic | Non-toxic | 
O=C(c1ccccc1)N1CCN(Cc2cccc(Oc3ccccc3)c2)CC1 | 21.9 | 22.9 | Non-toxic | Non-toxic | Non-toxic | 
COc1ccc(OCC(=O)N2CCN(Cc3cccc(Oc4ccccc4)c3)CC2)cc1 | 44.7 |  | Non-toxic | Non-toxic | Non-toxic | Toxic
O=C(Cc1ccccc1)N1CCN(Cc2cccc(Oc3ccccc3)c2)CC1 | 65.6 |  | Non-toxic | Non-toxic | Non-toxic | 
O=C(c1cccc(Oc2ccccc2)c1)N1CCN(C(=O)c2ccco2)CC1 | 69.3 |  | Non-toxic | Non-toxic | Non-toxic | 
O=C(COc1ccccc1)N1CCN(Cc2cccc(Oc3ccccc3)c2)CC1 | 69.3 | 21.4 | Non-toxic | Non-toxic | Non-toxic | 
O=C(O)C(=O)O.O=C(c1ccccc1F)N1CCN(Cc2cccc(Oc3ccccc3)c2)CC1 | 21.9 | 17.3 | Non-toxic | Non-toxic | Non-toxic | 
O=C(O)C(=O)O.O=C(c1cccnc1)N1CCN(Cc2cccc(Oc3ccccc3)c2)CC1 | 34 |  | Non-toxic | Non-toxic | Non-toxic | 
Oc1cc(Cl)ccc1Oc1ccc(Cl)cc1Cl | 16.3 |  |  |  |  | 
O=C(c1ccco1)N1CCN(Cc2cccc(Oc3ccccc3)c2)CC1 | 65.1 | 12 |  |  |  | 
COc1cccc(C(=O)N2CCN(Cc3cccc(Oc4ccccc4)c3)CC2)c1OC | 65.1 | 28.1 | Non-toxic | Non-toxic | Non-toxic | 
NNC(=O)c1ccncc1 [ISONIAZID] |  | 9.8 |  |  |  | 

Source: ChEMBL document CHEMBL3576853, “Discovery of InhA inhibitors with anti-mycobacterial activity through a matched molecular pair approach” (Eur J Med Chem, 2015)
